From US20250066409A1, “DERIVATIVE OF PENTACYCLIC TRITERPENOIDAL SAPONIN AND ITS PREPARATION METHOD AND APPLICATION” (SOOCHOW UNIVERSITY, priority 2022, published 2025)

Experiments:
[1] = tested on: IL-6; experiment: IL-6 release from LPS-stimulated THP-1 cells, ELISA; type: cell-based; settings: pretreatment 1 h, LPS 1 μg/mL 24 h, P<0.05
Protocol: (§1) THP-1 cells were seeded in a 6-well plate at 2×10^5 cells/well and cultured conventionally. After the cells reached 80%, they were induced with 100 ng/ml of PMA for 12 h, and then the original medium was discarded, and new complete medium was added. The control group was pretreated with B4 (0.1, 1, 10 μM) for 1 h, and the experimental group was pretreated with A3-6 (0.1, 1, 10 μM) for 1 h. After 1 h, the other groups were removed from the blank group and incubated with 1 μg/mL LPS for 24 h. The culture supernatant was collected, and the IL-6 and TNF-α contents were finally determined and calculated using ELISA kits step by step according to their instructions. The effect of A3-6 on the release of inflammatory factors was tested by ELISA kits.

[2] = tested on: TNF-α; experiment: TNF-α release from LPS-stimulated THP-1 cells, ELISA; type: cell-based; settings: pretreatment 1 h, LPS 1 μg/mL 24 h, P<0.05
Protocol: as §1

[3] = tested on: DSS-induced colitis mice; experiment: DSS-induced colitis in mice (DAI score, colon length); type: in vivo, ICR mice; settings: B4 group (100 mg/kg by gavage), 5% DSS mice
Protocol: ICR mice were fed normally for 3 days, with free access to water and food during the feeding period. After weighing, the mice were randomly divided into groups, including normal group, model group (DSS group), A3-6 (15, 30, 60 mg/kg) group, A3-6 (60 mg/kg)+DADA (50 mg/kg) group, and positive drug B4 (100 mg/kg) group. A3-6 was administered by gavage with hydroxypropyl β-cyclodextrin (1:3), B4 was dissolved in water and administered by gavage, and DADA (50 mg/kg) was injected intraperitoneally, once a day. The day before modeling, the weight was weighed and A3-6, DADA and B4 were pre-administered according to body weight. After 24 hours of administration, DSS was dissolved in the drinking water for mice. The mice in the model group and the administration group were continuously given 5% DSS for 8 days and weighed every day. […] After the 9th day of administration, the mice were sacrificed, blood and colon were collected, and the length of the colon was measured.
A3-6 (15 mg/kg, 30 mg/kg and 60 mg/kg) or B4 (100 mg/kg) were administered by gavage once daily for 9 days. […] The DAI scores of each group of mice were calculated daily according to the scoring requirements.
The mice colitis model was constructed using 5% DSS to evaluate the therapeutic effect of A3-6 on inflammatory bowel disease (IBD)-. […] The DAI score of the mice was comprehensively evaluated.

Q: How did the “release of IL-6 compared with the model group” value ([1]; 1 μM) turn out when C=C(C)[C@@H]1CC[C@]2(C(=O)O[C@@H]3O[C@H](CO[C@@H]4O[C@H](CO)[C@@H](O[C@@H]5O[C@@H](C)[C@H](O)[C@@H](O)[C@H]5O)[C@H](O)[C@H]4O)[C@@H](O)[C@H](O)[C@H]3O)CC[C@]3(C)[C@H](CC[C@@H]4[C@@]5(C)CC[C@H](O[C@@H]6OC[C@H](O)[C@H](O)[C@H]6O[C@@H]6O[C@@H](C)[C@H](O)[C@@H](O)[C@H]6O)[C@@](C)(CO)[C@@H]5CC[C@]43C)[C@@H]12 [B4, anemoside B4] was run?
A: significantly reduced

Q: What about the “release of IL-6 compared with the model group” value ([1]; 10 μM) of the same molecule?
A: significantly reduced

Q: What about the “release of TNF-α compared with the model group” value ([2]; 1 μM) of the same molecule?
A: significantly reduced

Q: What about the “release of TNF-α compared with the model group” value ([2]; 10 μM) of the same molecule?
A: significantly reduced

Q: And the colon length [3]?
A: could restore the colon length
